In patent US20070060636A1, “High enantiomeric purity dexanabinol for pharmaceutical compositions” (priority 2002, published 2007):
Where two headings read alike, the source gives them in different places.

Experiments:
[1] = toxicology studies, single and/or multiple i.v. doses; assay type: in vivo, rats, rabbits, and monkeys
Method: In order to support the i.v. testing of dexanabinol of high enantiomeric purity in humans, a series of acute single-dose and sub-chronic multiple dose toxicology studies were conducted to establish the safety profile of the compound in rats, rabbits, and monkeys. The 2-week and 4-week multidose studies included complete clinical and morphological evaluations. In vitro/in vivo mutagenicity studies and special toxicological evaluations have also been carried out to evaluate the safety profile of dexanabinol. The toxicology studies employed doses that were multiples of the proposed clinical doses.

[2] = 1st Phase I study, rising single i.v. dose, healthy male volunteers; assay type: in vivo, human; settings: for AUC∞/Dose: normalized for dose (mg/kg); for half-life / MRT / clearance / AUC / AUC(0-inf) / Cmax / Vd: male, human, plasma, iv; for AUC / AUC(0-inf) / Cmax: up to 24 hr; for Vd: read-out: Vss
Method: Pharmacokinetic parameters were estimated by a non-compartmental method using WinNonlin Professional version 3.2 (Pharsight Corp., Mountain View, Calif.). The maximum plasma concentration (Cmax), when the drug is administered by infusion, is the concentration at the end of infusion. The Cmax following intravenous bolus administration is the value estimated by the software to be the concentration at t=0. The terminal slope (X) was estimated by linear regression through the last time points and used to calculate the terminal half-life (t1/2) from the following equation: t1/2=0.693/λ The area under the curve from time of dosing through the last time point (AUCz) was calculated by the linear trapezoid method. The AUC extrapolated to infinity (AUC∞) was calculated from the following equation: AUC∞=AUCz+Cz/λ where Cz is the concentration at the last time point predicted by the linear regression. AUC∞ was normalized for dose (mg/kg) and presented as AUC∞/Dose. Mean residence time (MRT), when the drug is administered by infusion is described by the following equation: MRT=(AUMC/AUC)−(TI)/2 Mean residence time after i.v. bolus administration is described by the following equation: MRT=(AUMC/AUC) where AUMC is the area under the first moment curve and TI is the length of infusion. Plasma clearance (CL), and the apparent volume of distribution at steady state (Vss) were calculated from the following equations: CL=Dose/AUC∞ Vss=MRT×CL
A Phase I, open label, single center study was conducted to evaluate the safety and tolerance of dexanabinol of high enantiomeric purity following a single intravenous administration to normal, healthy male volunteers (Brewster M. E. et al., International Journal Of Clinical Pharmacology and Therapeutics 35: 361-5, 1997). The trial was designed as a rising-dose tolerance study in healthy young male volunteers. In the study, seven groups of at least six subjects each (in the 100 mg dose n=9) received increasing doses (4, 8, 16, 32, 48, 100, 200 mg/volunteer) of dexanabinol. An additional group of 6 subjects received the vehicle alone. The lower doses, from 4 to 32 mg/volunteer, were included only in the safety segment of the study. Volunteers were followed-up up to 6 days after drug dosing for safety evaluation.
The pharmacokinetic segment of this study involved 27 healthy male subjects to assess the pharmacokinetic profile of 48, 100 and 200 mg i.v. doses of dexanabinol. Each dosing group, including vehicle control, consisted of 6 healthy male subjects, except for the 100 mg dosing group which contained nine subjects. On the pre-study day, volunteers were treated with 20 mg dexamethasone orally. On the study day, each group was premedicated with Chlorpheniramine maleate 10 mg (H1 blocker) and Cimetidine 300 mg (H2 blocker) intravenously, followed 30 minutes later by a single intravenous infusion of dexanabinol, administered using an Ivac peristaltic pump at a rate of 6 ml/min (approximately 15 min infusion/dose). Ten milliliters of blood were then removed (from the contralateral arm) at the end of the infusion, at 5, 10, 20, 30, 45 min, and at 1, 2, 3, 6, 12 and 24 hr post infusion. In some cases blood was also drawn 48 hr post end of infusion.
Mean pharmacokinetic parameters were estimated by non-compartmental methods up to 24 hr post-infusion for each dose group (mean±SE; n=6 or 9) using WinNonlin Professional version 3.2, (Pharsight Corp., Mountain view Calif.) and are presented in Table 8.

[3] = 48 mg single i.v. infusion, healthy volunteers, mean ± SE
[4] = 100 mg single i.v. infusion, healthy volunteers, mean ± SE
[5] = 200 mg single i.v. infusion, healthy volunteers, mean ± SE

For `CCCCCCC(C)(C)c1cc(O)c2c(c1)OC(C)(C)[C@H]1CC=C(CO)C[C@H]21` [dexanabinol, 1,1-dimethylheptyl-(3S,4S)-7-hydroxy-Δ^6-tetrahydrocannabinol], the tolerability ([1]; CREMOPHOR EL:ethanol formulation, single and/or multiple i.v. doses in rats, rabbits and monkeys) was “generally well tolerated”, the psychomimetic side effect ([1]; at dose tested, any of the animal species tested) was “no psychomimetic side effect” and the “AUC∞/Dose” value [2, 3] was 72,469 ± 8,774 ng × min/ml. For the same compound, the “AUC∞/Dose” value [2, 4] was 59,374 ± 4,742 ng × min/ml, the “AUC∞/Dose” value [2, 5] was 48,162 ± 3,355 ng × min/ml and the Plasma concentrations ([2]; after a 48 mg dose (0.62 mg/kg)) was “approximately 1.8 μg/ml”. The Plasma concentrations ([2]; at 100 mg (1.29 mg/kg)) was roughly 2.9 µg/mL, the Plasma concentrations ([2]; at 200 mg (2.59 mg/kg)) was roughly 4.6 µg/mL and the half-life ([2]; 48 mg, 48 mg single i.v. infusion, healthy volunteers, mean ± SE, read-out: t1/2 (converted)) was 6.3 ± 0.7 h. It also gave a half-life ([2]; 100 mg, 100 mg single i.v. infusion, healthy volunteers, mean ± SE, read-out: t1/2 (converted)) of 6.1 ± 0.7 h, a half-life ([2]; 200 mg, 200 mg single i.v. infusion, healthy volunteers, mean ± SE, read-out: t1/2 (converted)) of 8.2 ± 0.7 h and a half-life ([2]; single i.v. infusion 48, 100, 200 mg, read-out: distributional phase half-life) of 0.0333 to 0.05 h. For the same compound, the half-life ([2]; single i.v. infusion 48, 100, 200 mg, read-out: intermediate phase elimination half-life) was 1 to 2 h, the half-life ([2]; single i.v. infusion 48, 100, 200 mg, read-out: terminal elimination phase half-life) was 8.5 to 9.5 h and the MRT [2, 3] was 3.1 ± 0.2 h. For the same compound, the clearance [2, 3] was 0.894 ± 0.114 L/h/kg, the AUC [2, 3] was 0.71 µg·h/mL and the AUC(0-inf) [2, 3] was 0.725 µg·h/mL. For the same compound, the Cmax [2, 3] was 1.86 µg/mL, the Vd [2, 3] was 2.8 ± 0.4 L/kg and the MRT [2, 4] was 3.1 ± 0.3 h. For the same compound, the clearance [2, 4] was 1.07 ± 0.09 L/h/kg, the AUC [2, 4] was 1.2 µg·h/mL and the AUC(0-inf) [2, 4] was 1.22 µg·h/mL. The Cmax [2, 4] was 2.89 µg/mL, the Vd [2, 4] was 3.4 ± 0.4 L/kg and the MRT [2, 5] was 4 ± 0.6 h. For the same compound, the clearance [2, 5] was 1.28 ± 0.096 L/h/kg, the AUC [2, 5] was 2.24 µg·h/mL and the AUC(0-inf) [2, 5] was 2.32 µg·h/mL. The Cmax [2, 5] was 4.57 µg/mL, the Vd [2, 5] was 5 ± 0.7 L/kg and the “acute doses found safe” value ([2]; single i.v.) was no more than 200 mg per subject. The “tolerability of drug administration” value ([2]; single i.v. 4 to 200 mg/volunteer) was “well tolerated”.
